Data taken from patent publication US20250340590A1, “PEPTIDE HAVING ANTI-INFLAMMATORY ACTIVITY AND USE THEREOF” (CAREGEN CO., LTD., priority 2021, published 2025).

Key:
[1] = tested on: IL-1β; experiment: IL-1β mRNA level by RT-PCR in TNFα-induced mouse splenocytes; assay type: cell-based; settings: TNFα 20 nM, peptide at 5 μM and 50 μM, 3 hours, compared to group not treated with the peptide
Protocol: In order to further confirm the anti-inflammatory effect of the peptide treatment of the present invention in addition to the results of Experimental Example <3-1>, inflammation was induced by treating mouse splenocytes with TNFα, and the expression levels of inflammatory cytokines TNFα and IL-1β, and Cox2, which is an inflammation-inducing marker, genes were confirmed. In order to induce inflammation, the cells were treated with cytokine TNFα, and since TNFα corresponds to a signaling protein associated with inflammation, IL-1β corresponds to a cytokine that promotes inflammation, and Cox2 is a protein associated with inflammation, the degree of inflammation can be confirmed by measuring the expression levels of TNFα, Cox2, and IL-1β genes.
Mouse splenocytes were dispensed into a 24-well plate at a concentration of 1× 10^7 cells/well and cultured until the next day. The medium was replaced with serum-free medium, and after 3 hours, the cells were treated with TNFα and the peptide of the present invention and then cultured for another 3 hours. In order to induce inflammation, the cells were treated with TNFα at 20 nM, and the peptide at 5 μM and 50 μM, respectively. […] After quantifying the amount of isolated RNA, cDNA was synthesized using a cDNA synthesis kit (Intron, Korea), PCR was performed using a PCR premix (Intron, Korea) and primers for TNFα, Cox2, and IL-1B. […]

[2] = tested on: IL-6; experiment: IL-6 mRNA level by RT-PCR in LPS-induced mouse splenocytes; assay type: cell-based; settings: LPS 2 μg/mL, peptide at 5 μM and 50 μM, 24 hours, compared to group not treated with the peptide
Protocol: Inflammation was induced in mouse splenocytes, and the expression levels of TNFα, and IL-6 genes, which is the inflammatory cytokines were confirmed. In order to induce inflammation, the cells were treated with LPS, an inflammation-inducing antigen, and since TNFα corresponds to a signaling protein associated with inflammation, and IL-6 corresponds to a cytokine that promotes inflammation, the degree of inflammation can be confirmed by measuring the expression levels of TNFα and IL-6 genes.
Mouse splenocytes were dispensed into a 24-well plate at a concentration of 1×10^7 cells/well and cultured until the next day. The medium was replaced with serum-free medium, and after 3 hours, the cells were treated with LPS and the peptide of the present invention and then cultured again for another 24 hours. In order to induce inflammation, the cells were treated with LPS at 2 μg/mL, and the peptide at […] and 50 μM, respectively. […] After quantifying the amount of isolated RNA, cDNA was synthesized using a cDNA synthesis kit (Intron, Korea), PCR was performed using a PCR premix (Intron, Korea) and primers for TNFα, and IL-6. […]

[3] = tested on: Cox2; experiment: Cox2 protein level by Western blot in TNFα-induced HaCaT cells; assay type: cell-based, human; settings: TNFα 20 nM, peptide at 5 μM and 50 μM, 24 hours, compared to group not treated with TNFα
Protocol: In order to confirm the anti-inflammatory effect of treatment with the peptides of the present invention having the amino acid sequence of SEQ ID NO: 1, inflammation was induced in HaCaT cells, which are human keratinocytes, and the expression level of Cox2 protein was confirmed. In order to induce inflammation, the cells were treated with TNFα, which is an inflammation-inducing cytokine, and since Cox2 is an enzyme involved in the synthesis of prostaglandins corresponding to an inflammation-related protein, it is possible to confirm whether inflammation is inhibited by measuring the expression level of Cox2.
HaCaT cells were dispensed into a 24-well plate at a concentration of 3× 10^5 cells/well and cultured until the next day. The medium was replaced with serum-free medium, and after 4 hours, the cells were treated with TNFα and the peptide of the present invention and cultured again for another 24 hours. In order to induce inflammation, the cells were treated with TNFα at 20 nM, and treated with the peptide at 5 μM and 50 μM, respectively. […] In order to perform Western blotting, the amount of Cox2 protein was measured using an anti-Cox2 antibody (Cell Signaling Technology, USA). […]

TWNS [peptide of the present invention]
decreased: mRNA expression level of IL-1β [1] | mRNA expression level of IL-6 [2] | expression level of Cox2 protein [3]
